Test [1] deals with cellular H3K36me2 level in multiple myeloma cell line KMS11 (t(4;14)+). As to the kind of experiment: H3K36me2 cellular ELISA assay in KMS11-Par line. The format is cell-based. To be noted: Homo sapiens, KMS-11, ELISA, read-out: H3K36me2 ELISA in KMS11-Par. An outline of the steps: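 After 72 h compound exposure, HCl-extracted histones from KMS11 (t(4;14)+) cells were probed by ELISA for H3K36me2 against total H3 with a chemiluminescence read-out. Cells were plated at 1,250/well in Opti-MEM plus B-27 and N2 the day before. A parallel CellTiter-Glo plate tracked viability.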
In general terms: ELISA stands for enzyme-linked immunosorbent assay.

A further test has as its target NSD2 [1-1365] (Homo sapiens (Human), UniProt O96028). As to the kind of experiment: LC-MS/MS-based NSD2 enzymatic assay (SAH production). It is filed as biochemical. To be noted: read-out: NSD2 IC50. An outline of the steps:
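SAH formed was measured by LC-MS/MS using d4-SAH as internal standard and an SAH calibration curve. Compounds were preincubated 20 min with NSD2 [1-1365] and SAM; mouse-liver nucleosome then started a 90 min room-temperature reaction (8 nM enzyme, 1 μM SAM, 400 nM nucleosome final, pH 8.0), stopped with TFA.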

For test [2], the system named is cellular H3K36me2 level in multiple myeloma cell line KMS11 (t(4;14)+). The experiment in a line: H3K36me2 cellular FRET assay in KMS11-Par line. It is filed as cell-based. The settings on record: Homo sapiens, KMS-11, KMS11-Par line, FRET, read-out: H3K36me2 FRET in KMS11-Par. The protocol:
H3K36Me2 Cellular FRET Assay in KMS11-Par Line
Fluorescence Resonance Energy Transfer (FRET) assay was used to test the ability of candidate compound to reduce cellular H3K36me2 level in multiple myeloma cell line KMS11 (t(4;14)+) (Horizon Discovery Ltd.).
Cells were treated with tested compounds at the desired concentration for 48 hours. […] Histone extract was incubated with Eu labeled anti-H3K36me2 antibody (abcam #ab ab9049) and d2 labeled anti-H3 antibody (abcam #ab1791) for 1 hour at room temperature. A Eu labeled anti-H3 antibody (CISBIO #64CUS000) was used for loading control. The abundancy of H3K36me2 or total H3 was measured by fluorescence signal on Perkin Elmer Envison machine.

Test [3] concerns cellular H3K36me2 level in thyroid carcinoma cell line CGTH-W-1 (NSD2 E1099K). As to the kind of experiment: H3K36me2 cellular ELISA assay in CGTH-W-1 line. It is filed as cell-based. To be noted: Homo sapiens, CGTH-W-1, 72 h, read-out: H3K36me2 ELISA in CGTH-W-1. An outline of the steps:
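After 72 h compound treatment of NSD2 E1099K-mutant CGTH-W-1 cells, H3K36me2 and total H3 were quantified by ELISA with chemiluminescent read-out. A parallel-seeded plate gave cell viability by CellTiter-Glo.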

Setting [4] is: KMS11-Par line (t(4;14)+), 72 hours treatment.
Where [5] appears, read: NSD2 biochemical activity, class symbols.

We go through 22 compounds from US11420970B1 (NOVARTIS AG, priority 2019, dated 2022).

Each structure is given as a SMILES string. pIC50: −log10 of the molar value. Where two headings read alike, the source gives them in different places.

NSD2 [1-1365], sequence (O96028 whole entry): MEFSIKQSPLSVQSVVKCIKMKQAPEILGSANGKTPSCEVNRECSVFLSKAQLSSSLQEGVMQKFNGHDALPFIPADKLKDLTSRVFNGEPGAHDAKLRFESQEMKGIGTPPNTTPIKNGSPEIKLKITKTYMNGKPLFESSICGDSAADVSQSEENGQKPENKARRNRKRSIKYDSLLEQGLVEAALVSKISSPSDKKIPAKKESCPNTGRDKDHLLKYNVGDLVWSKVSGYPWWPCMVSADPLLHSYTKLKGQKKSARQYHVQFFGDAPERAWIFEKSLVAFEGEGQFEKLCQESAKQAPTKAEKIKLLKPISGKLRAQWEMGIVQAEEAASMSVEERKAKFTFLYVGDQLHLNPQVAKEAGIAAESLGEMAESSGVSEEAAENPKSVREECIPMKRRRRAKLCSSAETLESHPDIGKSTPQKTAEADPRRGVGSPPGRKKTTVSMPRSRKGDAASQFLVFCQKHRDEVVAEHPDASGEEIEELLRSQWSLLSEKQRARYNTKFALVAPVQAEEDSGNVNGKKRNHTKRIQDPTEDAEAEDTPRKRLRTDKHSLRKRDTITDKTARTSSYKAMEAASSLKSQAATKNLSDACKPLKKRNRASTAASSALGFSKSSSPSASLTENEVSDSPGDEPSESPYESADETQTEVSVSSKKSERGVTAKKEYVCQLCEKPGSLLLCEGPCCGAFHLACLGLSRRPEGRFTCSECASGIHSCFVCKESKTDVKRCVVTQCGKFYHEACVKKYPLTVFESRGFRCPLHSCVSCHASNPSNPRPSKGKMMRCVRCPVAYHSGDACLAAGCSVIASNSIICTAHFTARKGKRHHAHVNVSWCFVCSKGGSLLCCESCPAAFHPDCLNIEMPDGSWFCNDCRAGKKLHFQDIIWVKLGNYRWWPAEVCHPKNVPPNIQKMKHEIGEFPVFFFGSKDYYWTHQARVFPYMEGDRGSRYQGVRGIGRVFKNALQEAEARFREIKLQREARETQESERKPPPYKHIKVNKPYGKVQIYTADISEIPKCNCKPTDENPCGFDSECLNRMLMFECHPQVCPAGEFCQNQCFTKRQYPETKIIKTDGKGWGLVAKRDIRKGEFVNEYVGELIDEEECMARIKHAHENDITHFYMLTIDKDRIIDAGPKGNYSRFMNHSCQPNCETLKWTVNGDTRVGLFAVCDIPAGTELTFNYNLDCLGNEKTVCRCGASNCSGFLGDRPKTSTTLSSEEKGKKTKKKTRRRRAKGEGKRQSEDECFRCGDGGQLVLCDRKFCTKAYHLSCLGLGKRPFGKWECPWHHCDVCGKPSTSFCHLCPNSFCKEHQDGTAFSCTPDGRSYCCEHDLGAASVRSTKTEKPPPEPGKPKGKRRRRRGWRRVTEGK

`CC(C)OC[C@@]1(N)CCCN(c2cnc(-c3ccc(F)cc3)cc2Cn2cnc3c(N)ncnc32)C1` [Example 37, (R)-9-((5-(3-amino-3-(isopropoxymethyl)piperidin-1-yl)-2-(4-fluorophenyl)pyridin-4-yl)methyl)-9H-purin-6-amine]: the figures for the pIC50 (in test [1] (setting [4]); on NSD2 [1-1365] (setting [5]); in test [2] (cellular H3K36me2 level)) were 5.85, 6.00 to 8.00 and 6.21, respectively.
For `Nc1ncnc2c1ncn2Cc1cc(-c2ccc(F)c(F)c2)ncc1N1CCC[C@](N)(COC(F)F)C1` [Example 41, (R)-9-((5-(3-amino-3-((difluoromethoxy)methyl)piperidin-1-yl)-2-(3,4-difluorophenyl)pyridin-4-yl)methyl)-9H-purin-6-amine], in that order: 5.64, 6.00 to 8.00 and 5.96.
`COc1ccc(-c2cc(Cn3cnc4c(N)ncnc43)c(N3CCC[C@](N)(CC(F)F)C3)cn2)cc1F` [Example 61, (S)-9-((5-(3-amino-3-(2,2-difluoroethyl)piperidin-1-yl)-2-(3-fluoro-4-methoxyphenyl)pyridin-4-yl)methyl)-9H-purin-6-amine]: the pIC50 on NSD2 [1-1365] (setting [5]) is 6.00 to 8.00; in test [2] (cellular H3K36me2 level), 5.85; in test [3], 6.19.
In the case of `COC[C@@]1(N)CCCN(c2cnc(-c3cc(Cl)ccc3F)cc2Cn2cnc3c(N)ncnc32)C1` [Example 26, (R)-9-((5-(3-amino-3-(methoxymethyl)piperidin-1-yl)-2-(5-chloro-2-fluorophenyl)pyridin-4-yl)methyl)-9H-purin-6-amine], the pIC50 in test [1] (setting [4]) was 6.43; at NSD2 [1-1365] (setting [5]) it was 8.00 to 9.00; in test [2] (cellular H3K36me2 level) it was 6.61.
For `Nc1ncnc2c1ncn2Cc1cc(-c2ccc(F)c(F)c2)ncc1N1CCC[C@](N)(Cc2ccccn2)C1` [Example 54, (S)-9-((5-(3-amino-3-(pyridin-2-ylmethyl)piperidin-1-yl)-2-(3,4-difluorophenyl)pyridin-4-yl)methyl)-9H-purin-6-amine], in that order: 6.11, 8.00 to 9.00 and 6.35.
`COC[C@@]1(N)CCCN(c2cnc(-c3ccc(OC)cc3F)cc2Cn2cnc3c(N)ncnc32)C1` [Example 33, (R)-9-((5-(3-amino-3-(methoxymethyl)piperidin-1-yl)-2-(2-fluoro-4-methoxyphenyl)pyridin-4-yl)methyl)-9H-purin-6-amine]: the pIC50 at NSD2 [1-1365] (setting [5]) was 8.00 to 9.00; in test [2] (cellular H3K36me2 level) it was 5.99.
With `Nc1ncnc2c1ncn2Cc1cc(-c2ccc(F)c(F)c2)ncc1N1CCC[C@](N)(COC2CC2)C1` [Example 22, (R)-9-((5-(3-amino-3-(cyclopropoxymethyl)piperidin-1-yl)-2-(3,4-difluorophenyl)pyridin-4-yl)methyl)-9H-purin-6-amine], the figures for the pIC50 (on NSD2 [1-1365] (setting [5]); in test [2] (cellular H3K36me2 level)) were 8.00 to 9.00 and 6.67, respectively.
For `CNC(=O)CC1(N)CCCN(c2cnc(-c3ccc(F)c(F)c3)cc2Cn2cnc3c(N)nccc32)C1` (centres unmarked) [Example 72, 2-(3-amino-1-(4-((4-amino-1H-imidazo[4,5-c]pyridin-1-yl)methyl)-6-(3,4-difluorophenyl)pyridin-3-yl)piperidin-3-yl)-N-methylacetamide], in that order: 6.00 to 8.00 and 3.60.
For `COC[C@@]1(N)CCCN(c2cnc(-c3cccc(Cl)c3)cc2Cn2cnc3c(N)ncnc32)C1` [Example 27, (R)-9-((5-(3-amino-3-(methoxymethyl)piperidin-1-yl)-2-(3-chlorophenyl)pyridin-4-yl)methyl)-9H-purin-6-amine], in that order: 8.00 to 9.00 and 6.30.
For `N#Cc1ccc(-c2cc(Cn3cnc4c(N)ncnc43)c(N3CCC[C@@H](N)C3)cn2)cc1Cl` [Example 7, (R)-4-(4-((6-amino-9H-purin-9-yl)methyl)-5-(3-aminopiperidin-1-yl)pyridin-2-yl)-2-chlorobenzonitrile], in that order: 6.00 to 8.00 and 4.82.
Take `Nc1ncnc2c1ncn2Cc1cc(-c2cccc(F)c2)ncc1N1CCC[C@](N)(CC(=O)O)C1` [Example 58, (S)-2-(3-amino-1-(4-((6-amino-9H-purin-9-yl)methyl)-6-(3-fluorophenyl)pyridin-3-yl)piperidin-3-yl)acetic acid]: the pIC50 at NSD2 [1-1365] (setting [5]) was 8.00 to 9.00; in test [2] (cellular H3K36me2 level), 5.58.
With `COc1ccc(-c2cc(Cn3cnc4c(N)ncnc43)c(N3CCCC(N)(C(C)F)C3)cn2)cc1F` (centres unmarked) [Example 295, 9-((5-(3-amino-3-(1-fluoroethyl)piperidin-1-yl)-2-(3-fluoro-4-methoxyphenyl)pyridin-4-yl)methyl)-9H-purin-6-amine], the pIC50 in test [1] (KMS11-Par line, 72 hours) was 5.73; at NSD2 [1-1365], 6.00 to 8.00; in test [2], 5.63.
On to `COc1ccc(-c2cc(Cn3cnc4c(N)ncnc43)c(N3CCC[C@@](C)(N)C3)cn2)cc1F` [Example 20, (R)-9-((5-(3-amino-3-methylpiperidin-1-yl)-2-(3-fluoro-4-methoxyphenyl)pyridin-4-yl)methyl)-9H-purin-6-amine], for which the pIC50 was 6.00 to 8.00 at NSD2 [1-1365] (setting [5]) and 5.53 in test [2] (cellular H3K36me2 level).
Take `Nc1ncnc2c1ncn2Cc1cc(-c2cccc(F)c2)ncc1N1CC[C@@H](F)[C@@H](N)C1` [Example 8, 9-((5-((3S,4R)-3-amino-4-fluoropiperidin-1-yl)-2-(3-fluorophenyl)pyridin-4-yl)methyl)-9H-purin-6-amine]: the pIC50 at NSD2 [1-1365] (setting [5]) is 6.00 to 8.00; in test [2] (cellular H3K36me2 level) it was 5.28.
Consider `COc1ccc(-c2cc(Cn3cnc4c(N)ncnc43)c(N3CCC[C@](N)(COCC(F)(F)F)C3)cn2)cc1F` [Example 39, (R)-9-((5-(3-amino-3-((2,2,2-trifluoroethoxy)methyl)piperidin-1-yl)-2-(3-fluoro-4-methoxyphenyl)pyridin-4-yl)methyl)-9H-purin-6-amine], for which the results for the pIC50 (at NSD2 [1-1365] (setting [5]); in test [2] (cellular H3K36me2 level)) were 6.00 to 8.00 and 5.59, respectively.
For `Nc1ncnc2c1ncn2Cc1cc(-c2cccc(F)c2)ncc1N1CCC[C@@H](N)C1` [Example 4, (R)-9-((5-(3-aminopiperidin-1-yl)-2-(3-fluorophenyl)pyridin-4-yl)methyl)-9H-purin-6-amine], the pIC50 is 6.00 to 8.00 on NSD2 [1-1365] (setting [5]) and 5.39 in test [2] (cellular H3K36me2 level).
For `N#Cc1ccc(-c2cc(Cn3cnc4c(N)ncnc43)c(N3CC[C@@H](F)[C@@H](N)C3)cn2)cc1F` [Example 13, 4-(5-((3S,4R)-3-amino-4-fluoropiperidin-1-yl)-4-((6-amino-9H-purin-9-yl)methyl)pyridin-2-yl)-2-fluorobenzonitrile] the same measures were 6.00 to 8.00 and 4.68.
`Nc1ncnc2c1ncn2Cc1cc(-c2cccc(F)c2)ncc1N1CCC[C@](N)(COC2CCC2)C1` [Example 35, (R)-9-((5-(3-amino-3-(cyclobutoxymethyl)piperidin-1-yl)-2-(3-fluorophenyl)pyridin-4-yl)methyl)-9H-purin-6-amine]: the results for the pIC50 (on NSD2 [1-1365] (setting [5]); in test [2] (cellular H3K36me2 level)) were 8.00 to 9.00 and 6.21, respectively.
For `COc1ccc(-c2cc(Cn3cnc4c(N)nccc43)c(N3CCC[C@@H](N)C3)cn2)cc1F` [Example 21, (R)-1-((5-(3-aminopiperidin-1-yl)-2-(3-fluoro-4-methoxyphenyl)pyridin-4-yl)methyl)-1H-imidazo[4,5-c]pyridin-4-amine], in that order: 6.00 to 8.00 and 4.68.
Consider `CNC(=O)CC1(N)CCCN(c2cnc(-c3cccc(F)c3)cc2Cn2cnc3c(N)ncnc32)C1` (centres unmarked) [Example 66, 2-(3-amino-1-(4-((6-amino-9H-purin-9-yl)methyl)-6-(3-fluorophenyl)pyridin-3-yl)piperidin-3-yl)-N-methylacetamide], for which the pIC50 was 6.00 to 8.00 on NSD2 [1-1365] (setting [5]) and 3.93 in test [2] (cellular H3K36me2 level).
`CO/N=C(\C)C1(N)CCCN(c2cnc(-c3ccc(OC)c(F)c3)cc2Cn2cnc3c(N)ncnc32)C1` (centres unmarked) [Example 96, (E)-1-(3-amino-1-(4-((6-amino-9H-purin-9-yl)methyl)-6-(3-fluoro-4-methoxyphenyl)pyridin-3-yl)piperidin-3-yl)ethan-1-one O-methyl oxime]: the pIC50 is 6.00 to 8.00 on NSD2 [1-1365] (setting [5]) and 5.62 in test [2] (cellular H3K36me2 level).
For `COC[C@@]1(N)CCCN(c2cnc(-c3ccc(F)c(F)c3)cc2Cn2cnc3c(N)ncnc32)C1` [Example 23, (R)-9-((5-(3-amino-3-(methoxymethyl)piperidin-1-yl)-2-(3,4-difluorophenyl)pyridin-4-yl)methyl)-9H-purin-6-amine] the same measures were 8.00 to 9.00 and 6.80.
